The target of this assay is T1, Human HPK1, catalytic domain (Homo sapiens, UniProt Q92918).
T1 sequence (Q92918 1-346): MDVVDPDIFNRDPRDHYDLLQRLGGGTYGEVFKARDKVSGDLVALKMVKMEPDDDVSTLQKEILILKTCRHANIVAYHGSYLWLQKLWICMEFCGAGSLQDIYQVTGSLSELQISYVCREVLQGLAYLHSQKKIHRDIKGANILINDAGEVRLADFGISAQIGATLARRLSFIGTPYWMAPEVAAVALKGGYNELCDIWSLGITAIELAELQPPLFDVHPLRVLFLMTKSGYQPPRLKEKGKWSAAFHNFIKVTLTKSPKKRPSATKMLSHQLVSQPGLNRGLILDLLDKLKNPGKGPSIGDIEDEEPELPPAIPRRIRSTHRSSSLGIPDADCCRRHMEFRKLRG
As to the kind of experiment: HPK1-SLP76 TR-FRET Assay. Conditions: 75 pM HPK1, ATP 10 uM, SLP76 10 nM, 30 min pre-incubation, 60 min reaction. The assay is classed as biochemical. (In general: Time-resolved FRET reads energy transfer from a long-lived donor to a nearby acceptor.)

These results are taken from patent publication US20230399341A1, “7-PHENYL SUBSTITUTED 2-AMINOQUINAZOLINE INHIBITORS OF HPK1” (MERCK SHARP & DOHME LLC, priority 2020, published 2023).

pIC50: −log10 of the molar value.

The term pIC50 denotes the negative decadic logarithm of the IC50, by convention in mol/L. A low value points to a high IC50. Take `COc1cc(CS(C)(=O)=O)ccc1Nc1ncc2c(N)c(F)c(-c3cnc4c(c3C)NCCO4)c(Cl)c2n1` (single isomer, unassigned) [Compound 2-101, (+ or −)-8-chloro-6-fluoro-N~2~-{2-methoxy-4-[(methylsulfony])methyl] phenyl}-7-(8-methyl-2,3-dihydro-1H-pyrido[2,3-b][1,4]oxazin-7-yl)quinazoline-2,5-diamine]: the pIC50 was 9.92.
Regarding `COc1cc2c(cc1Nc1ncc3ccc(-c4ccc5c(c4)CCO5)cc3n1)CNCC2` [Compound 1-72, 7-(2,3-dihydro-1-benzofuran-5-yl)-N-(6-methoxy-1,2,3,4-tetrahydroisoquinolin-7-yl)quinazolin-2-amine], the pIC50 was 7.27.
In the case of `COCC1CN(c2ccc3cnc(Nc4cc5c(cc4OC)CCN(C)C5)nc3c2)C1` [Compound 3-68, 7-[3-(methoxymethyl)azetidin-1-yl]-N-(6-methoxy-2-methyl-1,2,3,4-tetrahydroisoquinolin-7-yl)quinazolin-2-amine], the pIC50 is 6.28.
The compound `COc1cc2c(cc1Nc1ncc3c(N)c(F)c(-c4cnc5c(c4C)NCCO5)c(Cl)c3n1)CN(C)CC2` [Compound 2-94, (+ or −)-8-chloro-6-fluoro-N~2~-(6-methoxy-2-methyl-1,2,3,4-tetrahydroisoquinolin-7-yl)-7-(8-methyl-2,3-dihydro-1H-pyrido[2,3-b][1,4]oxazin-7-yl)quinazoline-2,5-diamine] showed a pIC50 of 8.24.
The compound `COc1cc2c(cc1Nc1ncc3ccc(-c4ccn5ncnc5c4)cc3n1)CN(C)CC2` [Compound 1-16, N-(6-methoxy-2-methyl-1,2,3,4-tetrahydroisoquinolin-7-yl)-7-([1,2,4]triazolo[1,5-a]pyridin-7-yl)quinazolin-2-amine] gave a pIC50 of 6.81.
In the case of `COc1cc2c(cc1Nc1ncc3cc(C#N)c(-c4cnc5c(c4C)NCCO5)cc3n1)CN(C)CC2` [Compound 1-97, 2-[(6-methoxy-2-methyl-1-1,2,3,4-tetrahydroisoquinolin-7-yl)amino]-7-(8-methyl-2,3-dihydro-1H-pyrido[2,3-b][1,4]oxazin-7-yl)quinazoline-6-carbonitrile], the pIC50 is 7.27.
In turn, `Cc1c(-c2c(F)c(N)c3cnc(Nc4ccc(CS(C)(=O)=O)cc4)nc3c2Cl)cnc2c1NCC(C)(C)O2` [Compound 2-161, (+ and −)-8-chloro-6-fluoro-N~2~-{4-[(methylsulfonyl)methyl]phenyl}-7-(3,3,8-trimethyl-2,3-dihydro-1H-pyrido[2,3-b][1,4]oxazin-7-yl)quinazoline-2,5-diamine] showed a pIC50 of 9.60.
Compound `COc1cc2c(cc1Nc1ncc3ccc(N[C@H]4CCN(C)C4=O)cc3n1)CN(C)CC2` [Compound 3-49, (3S)-3-({2-[(6-methoxy-2-meth-yl-1,2,3,4-tetrahydroisoquinolin-7-yl)amino]quinazolin-7-yl}-amino)-1-methylpyrrolidin-2-one] had a pIC50 of 7.01. This pIC50 lies 2.59 log units lower than the previous one.
The same measure for `COc1cc2c(cc1Nc1ncc3ccc(-c4cc(N)cc(C#N)c4)cc3n1)CNCC2` [Compound 1-62, 3-amino-5-{2-[(6-methoxy-1,2,3,4-tetrahydroisoquinolin-7-yl)amino]quinazolin-7-yl}benzonitrile]: 6.94; for `COc1cc2c(cc1Nc1ncc3ccc(-c4ccc5c(c4)OCO5)cc3n1)CNCC2` [Compound 1-71, 7-(2H-1,3-benzodioxol-5-yl)-N-(6-methoxy-1,2,3,4-tetrahydroisoquinolin-7-yl)quinazolin-2-amine]: 6.86.
In turn, `COc1cc2c(cc1Nc1ncc3ccc(-c4cccc(C(C)=O)c4)cc3n1)CNCC2` [Compound 1-66, 1-(3-{2-[(6-methoxy-1,2,3,4-tetrahydroisoquinolin-7-yl)amino]quinazolin-7-yl}phenyl)ethan-1-one] showed a pIC50 of 6.88.
Take `COc1cc2c(cc1Nc1ncc3ccc(N4CC(C)(CO)OC4=O)cc3n1)CN(C)CC2` (racemic) [Compound 3-7, (S and R)-5-(hydroxymethyl)-3-{2-[(6-methoxy-2-methyl-1,2,3,4-tetrahydroisoquinolin-7-yl)amino]quinazolin-7-yl}-5-methyl-1,3-oxazolidin-2-one]: the pIC50 is 7.34.
`Cc1c(-c2cc3nc(Nc4cccc5c4CC(C)(C)N(C)C5)ncc3c(N)c2F)cnc2c1NCCO2` (single isomer, unassigned) [Compound 2-127] showed a negative logarithm of the IC50 (pIC50) of 7.00.
In the case of `COc1cc2c(cc1Nc1ncc3ccc(-c4cncc(N5CCOCC5)c4)cc3n1)CNCC2` [Compound 1-42, N-(6-methoxy-1,2,3,4-tetrahydroisoquinolin-7-yl)-7-[5-(morpholin-4-yl)pyridin-3-yl]quinazolin-2-amine] it was 7.41; in that of `COc1cc2c(cc1Nc1ncc3ccc(-c4cc(N)ccc4C)cc3n1)CNCC2` [Compound 1-93, 7-(5-amino-2-methylphenyl)-N-(6-methoxy-1,2,3,4-tetrahydroisoquinolin-7-yl)quinazolin-2-amine], 6.32; in that of `Cc1c(-c2c(F)c(N)c3cnc(Nc4ccc5c(c4)CN(C)CC5)nc3c2Cl)cnc2c1NCCO2` (single isomer, unassigned) [Compound 2-179, (+ or −)-8-chloro-6-fluoro-7-(8-methyl-2,3-dihydro-1H-pyrido[2,3-b][1,4]oxazin-7-yl)-N~2~- (2-methyl-1,2,3,4-tetrahydroisoquinolin-7-yl)quinazoline-2,5-diamine], 8.53.
Compound `Cc1ccc(F)cc1-c1cc2nc(Nc3ccc4c(c3)CN(C)CC4)ncc2c(N)c1F` [Compound 2-174, 6-fluoro-7-(5-fluoro-2-methylphenyl)-N~2~-(2-methyl-1,2,3,4-tetrahydroisoquinolin-7-yl)quinazoline-2,5-diamine] had a pIC50 of 7.94.
In the case of `COc1cc2c(cc1Nc1ncc3ccc(NC4CCN(C(C)=O)CC4)cc3n1)CN(C)CC2` [Compound 3-38, 1-[4-({2-[(6-methoxy-2-methyl-1,2,3,4-tetrahydroisoquinolin-7-yl)amino]quinazolin-7-yl}-amino)piperidin-1-yl]ethan-1-one], the pIC50 was 6.43.
The compound `COc1cc2c(cc1Nc1ncc3ccc(-c4cnn(CCO)c4)cc3n1)CN(C)CC2` [Compound 1-13, 2-(4-{2-[(6-methoxy-2-methyl-1,2,3,4-tetrahydroisoquinazolin-7-yl)amino]quinazolin-7-yl}-1H-pyrazol-1-yl)ethan-1-ol] gave a pIC50 of 8.11.
The compound `COc1cc2c(cc1Nc1ncc3ccc(-c4cnc(N)nc4C)cc3n1)CN(C)CC2` [Compound 1-19, 7-(2-amino-4-methylpyrimidin-5-yl)-N-(6-methoxy-2-methyl-1,2,3,4-tetrahydroisoquinazolin-7-yl)quinazolin-2-amine] showed a pIC50 of 8.59. Against the preceding compound, the pIC50 is 0.48 log units higher.
The compound `COc1cc2c(cc1Nc1ncc3ccc(Nc4cc(S(C)(=O)=O)ccc4F)cc3n1)CN(C)CC2` [Compound 3-36, N~7~-[2-fluoro-5-(methyl-sulfonyl)phenyl]-N~2~-(6-methoxy-2-methyl-1,2,3,4-tetra-hydroisoquinolin-7-yl)quinaz-oline-2,7-diamine] showed a pIC50 of 8.38.
In turn, `Cc1c(-c2cc3nc(Nc4ccc5c(c4)CCN(C)C5)ncc3c(N)c2F)cnc2c1NCCO2` [Compound 2-158, 6-fluoro-7-(8-methyl-2,3-dihydro-1H-pyrido[2,3-b][1,4]oxazin-7-yl)-N~2~- (2-methyl-1,2,3,4-tetrahydroisoquinolin-6-yl)quinazoline-2,5-diamine] had a pIC50 of 10.60.
Compound `COc1cc2c(cc1Nc1ncc3ccc(-c4cccc(N)c4)cc3n1)CNCC2` [Compound 1-58, 7-(3-aminophenyl)-N-(6-methoxy-1,2,3,4-tetrahydroisoquinolin-7-yl)quinazolin-2-amine] gave a negative logarithm of the IC50 (pIC50) of 7.12. Compared with the last compound, the pIC50 is 3.48 log units lower.
`Cc1ncccc1Nc1ncc2c(N)c(F)c(-c3cnc4c(c3C)NCCO4)cc2n1` [Compound 2-32, 6-fluoro-7-(8-methyl-2,3-dihydro-1H-pyrido[2,3-b][1,4]oxazin-7-yl)-N~2~- (2-methylpyridin-3-yl)quinazoline-2,5-diamine]: the pIC50 was 9.17.
The same measure for `COc1cc2c(cc1Nc1ncc3ccc(NCc4cnsn4)cc3n1)CN(C)CC2` [Compound 3-63, N~2~-(6-methoxy-2-methyl-1,2,3,4-tetrahydroisoquinolin-7-yl)-N~7-[(1,2,5-thiadiazol-3-yl)-methyl]quinazoline-2,7-diamine]: 7.42; for `COc1cc2c(cc1Nc1ncc3c(N)cc(-c4cnc5c(c4C)NCCO5)cc3n1)CN(C)CC2` [Compound 2-40, N~2~-(6-methoxy-2-methyl-1,2,3,4-tetrahydroisoquinolin-7-yl)-7-(8-methyl-2,3-dihydro-1H-pyrido[2,3-b][1,4]oxazin-7-yl)quinazoline-2,5-diamine]: 9.20.
On to `COc1cc2c(cc1Nc1ncc3ccc(NCC4(C)COC4)cc3n1)CN(C)CC2` [Compound 3-62, N~2~-(6-methoxy-2-methyl-1,2,3,4-tetrahydroisoquinolin-7-yl)-N~7-[(3-methyloxetan-3-yl)-methyl]quinazoline-2,7-diamine], for which the pIC50 is 6.96.
As to `COc1cc2c(cc1Nc1ncc3ccc(Nc4cccc(N5CCN(C)C5=O)c4)cc3n1)CN(C)CC2` [Compound 3-43, 1-[3-({2-[(6-methoxy-2-methyl-1,2,3,4-tetrahydroisoquinolin-7-yl)amino]quinazolin-7-yl}-amino)phenyl]-3-methylimidaz-olidin-2-one], the negative logarithm of the IC50 (pIC50) was 7.16.
`CNC(=O)C(C)c1ccc(Nc2ncc3cc(F)c(-c4cnc5c(c4C)NCCO5)cc3n2)cc1` (single isomer, unassigned) [Compound 1-117, (R or S)-2-(4-{[6-fluoro-7-(8-methyl-2,3-dihydro-1H-pyrido[2,3-b][1,4]oxazin-7-yl)quinazolin-2-yl]amino}phenyl)-N-methylpropanamide] gave a pIC50 of 10.15. This pIC50 is 2.99 log units higher than that of the compound before.
